{
  "source": "paper PMC9298630",
  "about": "(Journal of Food and Drug Analysis, 2018)",
  "key": {"[1]": {"conditions": "S. Chinese remedy-treated rats; cited from earlier work"}, "[2]": {"conditions": "cited from earlier work"}, "[3]": {"experiment": "Stability of analytes in stored plasma samples", "conditions": "−80 °C, rat plasma"}, "[4]": {"conditions": "for AUC0–t / AUC0–∞ / CL/F (apparent clearance) / Cmax / Tmax / Vd/F / t1/2: rats, mean ± SEM"}, "[5]": {"test_system": "rat liver microsomal NFO activity (CYP3A)", "experiment": "Inhibition of rat liver microsomal nifedipine oxidation", "type": "in vitro ADME", "conditions": "100 μM, 10-min NADPH-fortified pre-incubation"}, "[6]": {"conditions": "oral suspension (40 mg/ml), 7 days, participants; cited from earlier work"}, "[7]": {"conditions": "oral nifedipine 3 mg/kg 1 h after SY 0.95 g/kg"}, "[8]": {"conditions": "oral nifedipine 3 mg/kg 1 h after SY […]"}, "[9]": {"conditions": "oral nifedipine 3 mg/kg together with ketoconazole 30 mg/kg"}, "[10]": {"conditions": "oral nifedipine 3 mg/kg, control"}},
  "note": "Where two headings read alike, the source gives them in different places.",
  "data": [
    {"compound": "COc1cc2c(c(OC)c1OC)-c1c(cc3c(c1OC)OCO3)CC(C)C(C)C2", "note": "(stereo not drawn) [schisandrin B]", "values": [
      {"measurement": "Tmax", "setting": "[1]", "result": "about 4 h"}
    ]},
    {"compound": "COC(=O)c1c(C)nc(C)c(C(=O)OC)c1-c1ccccc1[N+](=O)[O-]", "note": "[Dehydronifedipine, dehydronifedipine]", "values": [
      {"measurement": "AUC ratio of the dehydronifedipine to nifedipine", "setting": "[2]; rats treated with nifedipine suspension (in water)", "result": 38, "unit": "%"},
      {"measurement": "half-life (terminal)", "setting": "[2]; rats, nifedipine suspended in water (10 mg/ml), oral dose 10 mg/kg", "result": 15.7, "unit": "h"},
      {"measurement": "AUC0–t ratio of dehydronifedipine to nifedipine", "setting": "[2]; rats, ref 6 (Han et al.)", "result": "2.7 ± 0.3", "unit": "%"},
      {"measurement": "14-day stability in plasma samples", "setting": "[3]", "result": "99.6–100.8%"},
      {"measurement": "AUC0–t ratio of dehydronifedipine to nifedipine", "setting": "[4]; control rats, oral nifedipine 3 mg/kg in 50% PEG 400", "result": "2.7 ± 0.5", "unit": "%"},
      {"measurement": "AUC0–t", "setting": "[4]; [7]", "result": "0.11 ± 0.01", "unit": "µg·h/mL"},
      {"measurement": "AUC0–∞", "setting": "[4]; [7]", "result": "0.13 ± 0.02", "unit": "µg·h/mL"},
      {"measurement": "CL/F (apparent clearance)", "setting": "[4]; [7]", "result": "405 ± 53.3", "unit": "mL/min/kg"},
      {"measurement": "Cmax", "setting": "[4]; [7]", "result": "50 ± 10", "unit": "ng/mL"},
      {"measurement": "Tmax", "setting": "[4]; [7]", "result": "0.29 ± 0.05", "unit": "h"},
      {"measurement": "Vd/F", "setting": "[4]; [7]", "result": "61.0 ± 13.3", "unit": "L/kg"},
      {"measurement": "t1/2", "setting": "[4]; [7]", "result": "1.9 ± 0.5", "unit": "h"},
      {"measurement": "AUC0–t", "setting": "[4]; [8]", "result": "0.13 ± 0.02", "unit": "µg·h/mL"},
      {"measurement": "AUC0–∞", "setting": "[4]; [8]", "result": "0.24 ± 0.04", "unit": "µg·h/mL"},
      {"measurement": "CL/F (apparent clearance)", "setting": "[4]; [8]", "result": "253 ± 55", "unit": "mL/min/kg"},
      {"measurement": "Cmax", "setting": "[4]; [8]", "result": "40 ± 0", "unit": "ng/mL"},
      {"measurement": "Tmax", "setting": "[4]; [8]", "result": "0.58 ± 0.08", "unit": "h"},
      {"measurement": "Vd/F", "setting": "[4]; [8]", "result": "89.7 ± 14.4", "unit": "L/kg"},
      {"measurement": "t1/2", "setting": "[4]; [8]", "result": "4.8 ± 0.8", "unit": "h"},
      {"measurement": "AUC0–t", "setting": "[4]; [9]", "result": "0.46 ± 0.11 ^* h·μg/ml"},
      {"measurement": "AUC0–∞", "setting": "[4]; [9]", "result": "1.77 ± 0.53 ^* h·μg/ml"},
      {"measurement": "CL/F (apparent clearance)", "setting": "[4]; [9]", "result": "43.3 ± 16.7", "unit": "mL/min/kg"},
      {"measurement": "Cmax", "setting": "[4]; [9]", "result": "100 ± 20", "unit": "ng/mL"},
      {"measurement": "Tmax", "setting": "[4]; [9]", "result": "1.80 ± 0.55", "unit": "h"},
      {"measurement": "Vd/F", "setting": "[4]; [9]", "result": "34.3 ± 7.4", "unit": "L/kg"},
      {"measurement": "t1/2", "setting": "[4]; [9]", "result": "12.3 ± 3.9", "unit": "h"},
      {"measurement": "AUC0–t", "setting": "[4]; [10]", "result": "0.12 ± 0.02", "unit": "µg·h/mL"},
      {"measurement": "AUC0–∞", "setting": "[4]; [10]", "result": "0.14 ± 0.02", "unit": "µg·h/mL"},
      {"measurement": "CL/F (apparent clearance)", "setting": "[4]; [10]", "result": "395 ± 48.3", "unit": "mL/min/kg"},
      {"measurement": "Cmax", "setting": "[4]; [10]", "result": "40 ± 10", "unit": "ng/mL"},
      {"measurement": "Tmax", "setting": "[4]; [10]", "result": "0.70 ± 0.12", "unit": "h"},
      {"measurement": "Vd/F", "setting": "[4]; [10]", "result": "68.9 ± 9.0", "unit": "L/kg"},
      {"measurement": "t1/2", "setting": "[4]; [10]", "result": "2.0 ± 0.1", "unit": "h"}
    ]},
    {"compound": "COc1cc2c(c(OC)c1OC)-c1c(cc(OC)c(OC)c1OC)C[C@H](C)[C@H](C)C2", "note": "[schisandrin A]", "values": [
      {"measurement": "decrease of NFO activity", "setting": "[5]", "result": 48, "unit": "%"}
    ]},
    {"compound": "CC[C@@H]([C@H](C)O)n1ncn(-c2ccc(N3CCN(c4ccc(OC[C@@H]5CO[C@@](Cn6cncn6)(c6ccc(F)cc6F)C5)cc4)CC3)cc2)c1=O", "note": "[posaconazole]", "values": [
      {"measurement": "mean Cmax at 200 mg 4 times daily relative to 400 mg twice daily", "setting": "[6]", "result": 2, "unit": "fold"}
    ]}
  ]
}
